# Data taken from patent US20170202792A1, “METHOD FOR TREATING TAU-ASSOCIATED DISEASES” (NATIONAL TAIWAN NORMAL UNIVERSITY, priority 2016, published 2017).
# How the values were obtained:
# [1] = system: phosphorylated tau protein; test: Western blot of mouse hippocampal tissue, phosphorylated tau; format: in vivo; conditions: hyperglycemic 3×Tg-AD mice; 0.25 mg/kg i.p. daily vs DMSO
# Method: Hyperglycemia was induced by streptozotocin (STZ) to accelerated Alzheimer's disease progression of 6-month-old male transgenic 3×Tg−AD mice. Half of the 3×Tg−AD mice (n=30) received STZ (100 mg/kg) intraperitoneal injection at days 1, 2, 8, and 9 respectively as the high blood glucose group (HBG); another half of the 3×Tg-AD mice (n=30) received sodium citrate (0.1 M) at the same time points as the normal blood glucose group (NBG). […] Both mouse body weight (BW) and blood glucose (BG) were monitored every week.
# Mice were sacrificed after MWM and hippocampi were isolated for analyzing several protein expression levels by means of western blot. The protein of the hippocampi was quantified by BCA assay (Pierce), wherein 25 μg of protein was separated by SDS-PAGE and then transferred to PVDF film. Next, protein was blocked for reducing non-specific signals, and reacted with primary antibodies (GSK-3β, pS9-GSK-3β (non-activated), pT216-GSK-3β(activated), pS202Tau, pS396Tau, pT231Tau, HT7 (total Tau)), and secondary antibodies (anti-rabbit, anti-mouse IgG HRP-linked antibody; 1:10,000; Amersham Pharmacia Biotech). β-actin was used as the loading control, ECL kit was used to detect the antigen-antibody complex, and LAS-4000 (Fujifilm) was used for imaging and quantification.
# [2] = system: SH-SY5Y tauRD-DsRed cells; test: Neurite outgrowth in SH-SY5Y tauRD-DsRed cells (TUBB3 staining); format: cell-based, human; conditions: 10 μM, pre-treated 8 hours, doxycycline 7 days; untreated = 100%
# Method: We used SH-SY5Y human cells expressing a DsRed-tagged proaggregation mutant (ΔK280) of the C-terminal repeat domain of tau (tauRD-Gln^244-Glu^372 of the longest tau^441 isoform). The recombinant tauRD-DsRed construct was under the control of a tetracycline-regulated, hybrid human cytomegalovirus (CMV)/TetO2 promoter that can be induced by adding doxycycline. The cell lines were grown in medium containing blasticidin (5 μg/mL) and hygromycin (100 μg/mL).
# SH-SY5Y tauRD-DsRed cells were seeded in 6-well plates (1×10^5/well) in a medium containing all-trans retinoic acid (10 μM, Sigma). After 48 hours of incubation, cells were pre-treated with 10 μM Congo red and 10 μM compound (I) for 8 hours; after which, tauRD-DsRed expression was induced with 1μg/mL doxycycline for 7 days. The cells were then fixed in 4% paraformaldehyde, permeabilized with 0.1% Triton X-100, blocked in 3% BSA, and then stained with the primary antibody anti-TUBB3 (against neuronal Class III β-tubulin) (1:1000; Covance) and with a secondary anti-rabbit Alexa Fluor® 555 antibody (1:500; Molecular Probes). Nuclei were counterstained with 4′,6-diamidino-2-phenylindole (DAPI). The total outgrowth in the untreated, Congo red-treated, and compound (I)-treated cells was assessed using MetaXpress image acquisition and analysis software.
# HSPB1 = test: Western blot of HSPB1 expression in tauRD-DsRed SH-SY5Y cells; format: cell-based, human; conditions: untreated = 100%
# Description: (§1) Furthermore, chaperones are molecules essential for proper protein folding which play a key role in protein-folding disorders in central nervous system. […] Moreover, the upregulation of endoplasmic reticulum chaperones such as glucose-regulated protein, 78 kDa (GRP78) is a cellular protective response against AD (Hoshino et al., 2007. Endoplasmic reticulum chaperones inhibit the production of amyloid-(3 peptides. Biochem. J. 402, 581-589). Accordingly, the GRP78 and HSPB1 expression in tauRD-DsRed SH-SYSY cells treated by Congo red and compound (I) with or without doxycycline were analyzed.
# (§2) Western blotting analysis was applied for examining the expressions of HSPB1 and GRP78, the method was as follows: total proteins were extracted using RIPA buffer, which comprised 50 mM Tris-HCl, 150 mM NaCl, 1 mM EDTA, 1 mM EGTA, 0.1% SDS, 0.5% sodium deoxycholate, 1% Triton X-100, and a protease inhibitor cocktail (Calbiochem). […] Next, immunoreactive bands were detected using horseradish peroxidase-conjugated goat anti-mouse, goat anti-rabbit, or donkey anti-goat IgG antibodies (1:5000; GeneTex) and chemiluminescent substrate (Millipore).
# GRP78 = test: Western blot of GRP78 expression in tauRD-DsRed SH-SY5Y cells; format: cell-based, human; conditions: untreated = 100%
# Description: as §1, §2
# Aβ40, Aβ42 = test: Immunohistochemical staining of Aβ in brain tissue; format: in vivo, mouse; conditions: 0.25 mg/kg i.p. daily 28 days
# Method: Hyperglycemia was induced by streptozotocin (STZ) to accelerated Alzheimer's disease progression of 6-month-old male transgenic 3×Tg−AD mice. Half of the 3×Tg−AD mice (n=30) received STZ (100 mg/kg) intraperitoneal injection at days 1, 2, 8, and 9 respectively as the high blood glucose group (HBG); another half of the 3×Tg-AD mice (n=30) received sodium citrate (0.1 M) at the same time points as the normal blood glucose group (NBG). Then, HBG and NBG were divided into two groups respectively to give four groups such as NBG-compound (I), HBG-compound (I), NBG-DMSO, and HBG-DMSO with n=15 in each group; wherein 0.25 mg/kg of compound (I) (in 30 μL) were intraperitoneal injected into those mice of NBG-compound (I) and HBG-compound (I) groups daily since day 14 for 28 days, and 30 μL of DMSO solvent were intraperitoneal injected into those mice of NBG-DMSO and HBG-DMSO groups daily since day 14 for 28 days. Both mouse body weight (BW) and blood glucose (BG) were monitored every week.
# After the brain tissue of the mice was fixed and dehydrated, the tissue was cryosectioned (30 μm). The cryosections were then washed with phosphate buffered saline (PBS) for three times. After the optimal cutting temperature compound (OCT) was removed, 3% H2O2 was used to remove the endogenous peroxidase, and the cryosections were blocked by the blocking solution for 1 hour to reduce the non-specific antigen reactions. The primary antibodies (Aβ40, Aβ42) were added and reacted for 12 hours, the secondary antibody (1:200 dilution in blocking solution, Vecter) was added and reacted for 1 hour, and then, the avidin-biotin complex was added and reacted for 1 hour. Finally, DAB-kit was used for coloring. All the stained sections were attached to the slides, dried, dehydrated, and mounted for imaging and quantification (Image Pro Plus). The quantification results were shown in Table 1, wherein ↑, ↓:p<0.05; ↑↑, ↓↓:p<0.01.
# [3] = HBG (high blood glucose, STZ) 3×Tg-AD mice
# [4] = NBG (normal blood glucose) 3×Tg-AD mice
smiles,measurement,setting,value
"CCCCC/C=C\C/C=C\C/C=C\C/C=C\CCCC(=O)Nc1ccc(O)cc1 [compound (I), (5Z, 8Z, 11Z,14Z)-N-(4-Hydroxyphenyl)icosa-5 ,8 , 11,14-tetraen amide]",expression level of phosphorylated tau protein in hippocampus,[1],lower than that of the mice administrated with DMSO
same,neurite growth relative to untreated cells,[2],140%
same,expression of HSPB1 relative to untreated cells,HSPB1,174%
same,expression of GRP78 relative to untreated cells,GRP78,189%
same,Aβ40 staining quantification,"Aβ40, Aβ42; [3]",164.78 ± 9.51↓↓
same,Aβ42 staining quantification,"Aβ40, Aβ42; [3]",26.91 ± 1.28↓
same,Aβ40 staining quantification,"Aβ40, Aβ42; [4]",181.88 ± 4.17
same,Aβ42 staining quantification,"Aβ40, Aβ42; [4]",29.13 ± 0.64
